Source: patent publication US20240109969A1, “Dosing Regimen for Therapies Comprising Bispecific Anti-EGFR/C-Met Antibodies” (Janssen Biotech, Inc., priority 2022, published 2024)
“Also recorded” adds a separate entry of the source.

Legend:
P-glycoprotein (P-gp) = P-glycoprotein (P-gp) (Homo sapiens, UniProt P08183); conditions: cited from earlier work
[1] = target: T1, multidrug resistance protein 4 (MRP4) (Homo sapiens, UniProt O15439); conditions: cited from earlier work
T1 sequence (O15439 1-1325): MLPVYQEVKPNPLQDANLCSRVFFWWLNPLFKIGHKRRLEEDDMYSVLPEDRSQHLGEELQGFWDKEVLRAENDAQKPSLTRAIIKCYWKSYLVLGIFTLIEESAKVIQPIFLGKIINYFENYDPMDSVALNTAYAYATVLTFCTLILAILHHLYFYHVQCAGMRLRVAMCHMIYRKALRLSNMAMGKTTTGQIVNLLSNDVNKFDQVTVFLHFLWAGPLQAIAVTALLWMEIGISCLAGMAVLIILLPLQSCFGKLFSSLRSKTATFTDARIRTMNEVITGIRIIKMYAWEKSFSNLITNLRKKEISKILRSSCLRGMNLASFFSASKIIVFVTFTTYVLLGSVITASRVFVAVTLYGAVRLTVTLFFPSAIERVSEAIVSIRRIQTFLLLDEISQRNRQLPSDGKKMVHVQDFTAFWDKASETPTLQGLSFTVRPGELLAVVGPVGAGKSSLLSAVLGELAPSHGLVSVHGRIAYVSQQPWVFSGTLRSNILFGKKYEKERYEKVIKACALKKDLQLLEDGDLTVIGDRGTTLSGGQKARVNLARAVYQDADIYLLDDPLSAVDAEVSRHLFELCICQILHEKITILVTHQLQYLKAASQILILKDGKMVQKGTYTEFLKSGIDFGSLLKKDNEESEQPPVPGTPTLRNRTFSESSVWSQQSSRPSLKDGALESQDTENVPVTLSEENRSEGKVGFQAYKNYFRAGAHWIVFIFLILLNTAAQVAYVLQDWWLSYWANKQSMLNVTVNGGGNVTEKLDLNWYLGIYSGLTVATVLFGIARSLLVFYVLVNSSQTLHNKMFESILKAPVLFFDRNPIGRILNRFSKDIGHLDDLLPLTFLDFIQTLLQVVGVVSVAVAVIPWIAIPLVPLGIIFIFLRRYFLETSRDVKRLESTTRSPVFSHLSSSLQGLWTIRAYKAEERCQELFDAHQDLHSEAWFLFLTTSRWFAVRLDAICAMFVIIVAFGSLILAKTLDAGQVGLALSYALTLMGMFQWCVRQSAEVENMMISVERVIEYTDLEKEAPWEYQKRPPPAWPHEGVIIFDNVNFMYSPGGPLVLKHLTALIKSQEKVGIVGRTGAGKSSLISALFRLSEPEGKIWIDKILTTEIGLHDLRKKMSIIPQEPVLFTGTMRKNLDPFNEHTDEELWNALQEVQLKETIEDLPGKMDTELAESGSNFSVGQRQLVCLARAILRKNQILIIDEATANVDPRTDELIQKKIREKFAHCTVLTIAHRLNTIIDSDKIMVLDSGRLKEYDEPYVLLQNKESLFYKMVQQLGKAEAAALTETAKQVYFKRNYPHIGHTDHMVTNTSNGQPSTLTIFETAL

[2] = target: T2, breast cancer resistance protein (BCRP) (Homo sapiens, UniProt Q9UNQ0); conditions: cited from earlier work
T2 sequence (Q9UNQ0 1-655): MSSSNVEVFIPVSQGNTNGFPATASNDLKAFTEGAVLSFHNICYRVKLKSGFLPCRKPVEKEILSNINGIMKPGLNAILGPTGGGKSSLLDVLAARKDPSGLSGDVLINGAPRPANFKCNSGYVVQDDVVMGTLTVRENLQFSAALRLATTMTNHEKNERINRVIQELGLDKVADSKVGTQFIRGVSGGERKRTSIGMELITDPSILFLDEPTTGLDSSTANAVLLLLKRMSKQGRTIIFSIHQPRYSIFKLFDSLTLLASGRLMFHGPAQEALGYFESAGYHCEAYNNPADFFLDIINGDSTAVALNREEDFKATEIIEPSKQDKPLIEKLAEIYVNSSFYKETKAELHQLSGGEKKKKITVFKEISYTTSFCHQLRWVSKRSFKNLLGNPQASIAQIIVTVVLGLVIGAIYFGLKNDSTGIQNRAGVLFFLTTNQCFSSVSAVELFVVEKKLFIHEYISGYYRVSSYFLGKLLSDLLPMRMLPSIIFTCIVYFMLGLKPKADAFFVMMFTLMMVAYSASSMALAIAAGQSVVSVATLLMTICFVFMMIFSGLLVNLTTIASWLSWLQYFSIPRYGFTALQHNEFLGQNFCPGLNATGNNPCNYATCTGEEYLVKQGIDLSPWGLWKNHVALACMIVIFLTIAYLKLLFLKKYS

[3] = target: T3, Organic Cation Transporter 1 (OCT1) (Homo sapiens, UniProt O15245); conditions: cited from earlier work
T3 sequence (O15245 1-554): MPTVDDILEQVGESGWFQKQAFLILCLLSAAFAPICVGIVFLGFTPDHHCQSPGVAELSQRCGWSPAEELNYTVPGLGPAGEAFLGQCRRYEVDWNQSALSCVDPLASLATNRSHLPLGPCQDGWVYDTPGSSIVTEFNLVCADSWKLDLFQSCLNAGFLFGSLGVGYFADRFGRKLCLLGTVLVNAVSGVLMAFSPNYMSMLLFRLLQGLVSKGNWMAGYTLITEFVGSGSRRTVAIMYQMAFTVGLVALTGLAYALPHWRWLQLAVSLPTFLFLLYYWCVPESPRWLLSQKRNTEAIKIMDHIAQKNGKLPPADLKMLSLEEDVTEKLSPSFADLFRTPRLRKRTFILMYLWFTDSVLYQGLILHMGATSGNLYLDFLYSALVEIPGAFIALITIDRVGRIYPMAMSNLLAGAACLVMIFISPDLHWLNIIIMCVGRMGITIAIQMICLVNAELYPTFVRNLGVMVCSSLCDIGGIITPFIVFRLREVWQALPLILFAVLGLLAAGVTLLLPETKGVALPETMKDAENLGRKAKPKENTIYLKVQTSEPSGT

Chain of P-glycoprotein (P-gp) (P08183 whole entry): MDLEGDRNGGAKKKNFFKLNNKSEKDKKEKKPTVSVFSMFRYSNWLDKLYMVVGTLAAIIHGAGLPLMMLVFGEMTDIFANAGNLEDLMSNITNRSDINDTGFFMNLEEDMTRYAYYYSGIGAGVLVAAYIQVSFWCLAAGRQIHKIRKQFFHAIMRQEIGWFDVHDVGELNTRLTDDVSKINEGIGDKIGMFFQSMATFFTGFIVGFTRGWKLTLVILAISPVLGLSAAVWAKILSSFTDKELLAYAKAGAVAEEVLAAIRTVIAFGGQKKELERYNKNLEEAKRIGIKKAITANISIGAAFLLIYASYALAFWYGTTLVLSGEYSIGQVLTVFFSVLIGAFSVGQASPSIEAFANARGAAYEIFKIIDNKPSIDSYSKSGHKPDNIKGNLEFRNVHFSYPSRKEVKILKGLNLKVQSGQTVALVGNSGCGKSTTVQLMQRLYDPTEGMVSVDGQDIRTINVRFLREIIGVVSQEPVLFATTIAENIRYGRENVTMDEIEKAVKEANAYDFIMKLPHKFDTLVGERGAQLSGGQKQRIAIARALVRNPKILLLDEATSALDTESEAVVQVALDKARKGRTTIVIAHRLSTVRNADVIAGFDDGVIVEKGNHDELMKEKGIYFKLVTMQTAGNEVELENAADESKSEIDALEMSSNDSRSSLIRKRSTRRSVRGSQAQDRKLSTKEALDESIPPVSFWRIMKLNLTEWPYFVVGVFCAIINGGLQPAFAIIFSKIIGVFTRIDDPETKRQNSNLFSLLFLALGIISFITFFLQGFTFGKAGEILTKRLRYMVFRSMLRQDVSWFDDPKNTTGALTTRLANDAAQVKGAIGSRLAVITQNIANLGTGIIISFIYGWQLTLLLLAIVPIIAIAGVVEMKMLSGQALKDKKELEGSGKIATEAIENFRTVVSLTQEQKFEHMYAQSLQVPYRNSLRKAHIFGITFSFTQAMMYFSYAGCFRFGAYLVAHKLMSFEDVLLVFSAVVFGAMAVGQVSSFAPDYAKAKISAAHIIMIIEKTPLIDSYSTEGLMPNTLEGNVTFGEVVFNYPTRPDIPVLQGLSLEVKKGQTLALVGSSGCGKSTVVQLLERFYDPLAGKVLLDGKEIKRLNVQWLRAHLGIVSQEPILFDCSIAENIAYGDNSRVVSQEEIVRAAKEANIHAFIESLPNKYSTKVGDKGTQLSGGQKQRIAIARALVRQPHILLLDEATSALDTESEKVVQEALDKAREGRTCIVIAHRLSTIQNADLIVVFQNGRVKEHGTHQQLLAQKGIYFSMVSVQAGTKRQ

Molecule	inhibition of P-gp (P-glycoprotein (P-gp))	inhibition of MRP4 [1]	inhibition of BCRP [2]	inhibition of OCT1 [3]	impact of chemotherapy on amivantamab exposure (preliminary cycle 1 PK data (n=9), FIG. 3A-C)	amivantamab trough concentration / exposure, Q3W (21-day cycle) versus monotherapy Q2W (28-day cycle, 1050/1400 mg) (preliminary, FIG. 4A-B)
C=CC(=O)Nc1cc(Nc2nccc(-n3cc(CN(C)C)c(-c4ccccc4)n3)n2)c(OC)cc1N1CCOCC1 [Lazertinib, N-(5-(4-(4-((dimethylamino)methyl)-3-phenyl-1H-pyrazol-1-yl)pyrimidin-2-ylamino)-4-methoxy-2-morpholinophenyl)acrylamide]	inhibitor	inhibitor	inhibitor	inhibitor	–	–
amivantamab	–	–	–	–	no impact; also recorded: not impacted	Similar
